# Reference: ChEMBL document CHEMBL4819054, “Rotenoids and Other Specialized Metabolites from the Roots of Mirabilis multiflora: Opioid and Cannabinoid Receptor Radioligand Binding Affinities” (J Nat Prod, 2021)
# Calls of active or inactive are those of the source. No cut-off for these calls is given here.
# Columns and labels:
# Conditions in all cases: Membrane
# [1] = target: Kappa-type opioid receptor (Homo sapiens) (UniProt P41145); experiment: Displacement of [3H]-U69593 from human kappa opioid receptor expressed in CHO-K1 cell membranes at 10 uM incubated for 60 mins by TopCount scintillation counting method relative to control
# [2] = target: Mu-type opioid receptor (Homo sapiens) (UniProt P35372); experiment: Displacement of [3H]-DAMGO from human mu opioid receptor expressed in CHO-K1 cell membranes at 10 uM incubated for 60 mins by TopCount scintillation counting method relative to control
# [3] = target: Cannabinoid receptor 1 (Homo sapiens) (UniProt P21554); experiment: Displacement of [3H]-CP-55,940 from full-length recombinant human CB1R expressed in CHO-K1 cell membranes at 10 uM incubated for 90 mins by TopCount scintillation counting method relative to control
# [4] = target: Cannabinoid receptor 2 (Homo sapiens) (UniProt P34972); experiment: Displacement of [3H]-CP-55,940 from full-length recombinant human CB2R expressed in CHO-K1 cell membranes at 10 uM incubated for 90 mins by TopCount scintillation counting method relative to control
# [5] = target: Delta-type opioid receptor (Homo sapiens) (UniProt P41143); experiment: Displacement of [3H]-DPDPE from human delta opioid receptor expressed in CHO-K1 cell membranes at 10 uM incubated for 60 mins by TopCount scintillation counting method relative to control
# Sequence of Delta-type opioid receptor (Homo sapiens) (P41143 whole entry): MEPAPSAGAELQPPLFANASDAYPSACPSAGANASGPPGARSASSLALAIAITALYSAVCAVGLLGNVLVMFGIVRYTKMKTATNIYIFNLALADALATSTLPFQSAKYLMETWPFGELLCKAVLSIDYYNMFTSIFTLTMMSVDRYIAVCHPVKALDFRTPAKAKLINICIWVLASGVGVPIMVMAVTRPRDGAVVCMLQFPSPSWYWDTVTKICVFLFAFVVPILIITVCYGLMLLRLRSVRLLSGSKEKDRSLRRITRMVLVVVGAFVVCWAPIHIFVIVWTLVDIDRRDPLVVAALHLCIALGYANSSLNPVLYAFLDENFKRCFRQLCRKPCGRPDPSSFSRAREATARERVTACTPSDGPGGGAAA
# Sequence of Cannabinoid receptor 2 (Homo sapiens) (P34972 whole entry): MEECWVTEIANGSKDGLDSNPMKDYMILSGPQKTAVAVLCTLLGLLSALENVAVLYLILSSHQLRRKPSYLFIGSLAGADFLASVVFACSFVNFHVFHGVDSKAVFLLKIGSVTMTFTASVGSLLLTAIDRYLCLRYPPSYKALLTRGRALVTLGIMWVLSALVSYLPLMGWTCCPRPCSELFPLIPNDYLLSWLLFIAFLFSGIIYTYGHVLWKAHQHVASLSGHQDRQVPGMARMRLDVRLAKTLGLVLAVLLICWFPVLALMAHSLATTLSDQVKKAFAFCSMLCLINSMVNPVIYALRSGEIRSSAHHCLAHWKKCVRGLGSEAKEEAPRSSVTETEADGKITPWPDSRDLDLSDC
# Sequence of Kappa-type opioid receptor (Homo sapiens) (P41145 whole entry): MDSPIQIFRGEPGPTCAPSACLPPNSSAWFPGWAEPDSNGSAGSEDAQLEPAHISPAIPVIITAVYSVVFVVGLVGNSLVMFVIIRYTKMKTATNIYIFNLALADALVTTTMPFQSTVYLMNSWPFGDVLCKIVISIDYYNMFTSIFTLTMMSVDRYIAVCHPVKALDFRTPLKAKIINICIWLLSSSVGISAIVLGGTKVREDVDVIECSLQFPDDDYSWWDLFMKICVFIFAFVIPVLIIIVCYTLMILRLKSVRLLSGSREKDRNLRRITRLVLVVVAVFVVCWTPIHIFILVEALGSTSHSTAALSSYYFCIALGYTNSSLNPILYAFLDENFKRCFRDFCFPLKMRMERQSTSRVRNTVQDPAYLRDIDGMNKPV
# Sequence of Cannabinoid receptor 1 (Homo sapiens) (P21554 whole entry): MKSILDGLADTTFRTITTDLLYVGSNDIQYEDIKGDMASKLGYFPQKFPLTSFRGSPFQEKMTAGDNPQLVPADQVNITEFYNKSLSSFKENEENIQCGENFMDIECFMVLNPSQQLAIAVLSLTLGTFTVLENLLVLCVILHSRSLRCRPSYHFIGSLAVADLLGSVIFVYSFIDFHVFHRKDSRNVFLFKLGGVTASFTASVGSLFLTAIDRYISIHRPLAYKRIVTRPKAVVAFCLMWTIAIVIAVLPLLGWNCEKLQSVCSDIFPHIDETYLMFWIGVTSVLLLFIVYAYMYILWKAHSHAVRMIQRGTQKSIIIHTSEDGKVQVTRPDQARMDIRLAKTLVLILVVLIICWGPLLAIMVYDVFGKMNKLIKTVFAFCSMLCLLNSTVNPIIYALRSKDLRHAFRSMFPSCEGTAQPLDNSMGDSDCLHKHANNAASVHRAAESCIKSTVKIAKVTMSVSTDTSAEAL
# Sequence of Mu-type opioid receptor (Homo sapiens) (P35372 whole entry): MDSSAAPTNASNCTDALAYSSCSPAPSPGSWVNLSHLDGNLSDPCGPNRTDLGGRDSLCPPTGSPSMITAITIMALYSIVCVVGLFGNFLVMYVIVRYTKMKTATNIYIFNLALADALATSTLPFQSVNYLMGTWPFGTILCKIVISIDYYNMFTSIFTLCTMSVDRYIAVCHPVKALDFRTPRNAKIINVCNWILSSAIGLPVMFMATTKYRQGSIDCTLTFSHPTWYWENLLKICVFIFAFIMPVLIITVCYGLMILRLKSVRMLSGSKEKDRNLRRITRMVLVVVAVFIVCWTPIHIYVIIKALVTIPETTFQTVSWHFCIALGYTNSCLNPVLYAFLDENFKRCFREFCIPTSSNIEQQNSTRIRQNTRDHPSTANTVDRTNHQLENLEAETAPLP
SMILES,Activity [1],Activity [2],Activity [3],Activity [4],Activity [5]
COc1c(C)c(O)c2c(c1C)O[C@H]1COc3c(O)cccc3[C@]1(O)C2=O,38.9%,45.9%,inactive,inactive,15.2%
COc1cc2c(c(O)c1C)C(=O)[C@@]1(O)c3cccc(O)c3O[C@@H](OC)[C@@H]1O2,28.9%,39.6%,42.2%,7.4%,20.1%
CO[C@@H]1Oc2ccccc2-c2c1oc1cc(O)c(C)c(O)c1c2=O,48.8%,64.5%,inactive,inactive,24.5%

# Other lines, results leading:
Activity [1],Activity [2],Activity [3],Activity [4],Activity [5],SMILES
30.5%,58.6%,inactive,5.4%,12.3%,COc1cc2c(c(O)c1C)C(=O)[C@@]1(O)c3cccc(OC)c3O[C@@H](OC)[C@@H]1O2
41.8%,55.3%,17%,inactive,31.6%,COc1c(C)c(O)c2c(c1C)O[C@H]1[C@H](OC)Oc3c(O)cccc3[C@]1(O)C2=O
21.8%,50.9%,inactive,inactive,26.3%,COc1cc2c(c(O)c1C)C(=O)[C@@]1(O)c3cccc(O)c3OC[C@@H]1O2
